US9051342B2 (priority 2004, dated 2015)
Where a name gives a salt, the structure may show the parent alone.

Structure (SMILES) | melting point
COc1ccc2c(c1)-c1nn(-c3ccc(C(=O)O)cc3)cc1C2 [Compound 149, 4-(7-Methoxy-4H-indeno[1,2-c]pyrazol-2-yl)-benzoic acid] | 304 to 306 °C
O=C(O)c1ccc(-c2ccn(-c3cccc(Cl)c3)c2)cc1 [Compound 243, 4-[1-(3-Chloro-phenyl)-1H-pyrrol-3-yl]-benzoic acid] | 199 to 201 °C
O=C(O)c1cccc(-c2ccn(-c3ccc(Cl)cc3)c2)c1 [Compound 155, 3-[1-(4-Chloro-phenyl)-1H-pyrrol-3-yl]-benzoic acid] | 211 to 213 °C
O=C(O)c1cccc(-c2ncn(-c3ccc(-c4ccc(F)cc4)cc3)n2)c1 [Compound 32, 3-[1-(4′-Fluoro-biphenyl-4-yl)-1H-[1,2,4]triazol-3-yl]-benzoic acid] | 272 to 275 °C
O=C(O)c1cccc(-c2ncn(-c3ccc(C(F)(F)F)cc3)n2)c1 [Compound 18, 3-[1-(4-Trifluoromethyl-phenyl)-1H-[1,2,4]triazol-3-yl]-benzoic acid] | 141 to 143 °C
CC(C)c1ccc(-c2ccn(-c3cccc(C(=O)O)c3)c2)cc1 [Compound 287] | 244 to 245 °C
CN(C)c1cccc(-n2ccc(-c3cccc(C(=O)O)c3)n2)c1 [Compound 164, 3-[1-(3-Dimethylamino-phenyl)-1H-pyrazol-3-yl]-benzoic acid] | 180 to 183 °C
COc1ccc(-n2cc(-c3cccc(C(=O)O)n3)cn2)cc1 [Compound 53, 6-[1-(4-Methoxy-phenyl)-1H-pyrazol-4-yl]-pyridine-2-carboxylic acid] | 122 to 123 °C
N#Cc1cccc(-c2ccn(-c3ccc(OC(F)(F)F)cc3)n2)c1 [Compound 61, 3-[1-(4-Trifluoromethoxy-phenyl)-1H-pyrazol-3-yl]-benzonitrile] | 83 to 84 °C
O=C(O)c1cccc(-c2ccn(-c3ccc4c(c3)OCO4)c2)c1 [Compound 247, 3-(1-Benzo[1,3]dioxol-5-yl-1H-pyrrol-3-yl)-benzoic acid] | 177 to 180 °C
O=C(O)c1cccc(-n2ncc3c2Cc2ccccc2-3)c1 [Compound 136, 3-(8H-Indeno[2,1-c]pyrazol-1-yl)-benzoic acid] | 241 to 243 °C
O=C(O)c1cccc(-n2ccc(-c3ccccc3)n2)c1 [Compound 79, 3-(3-Phenyl-pyrazol-1-yl)-benzoic acid] | 180 to 182 °C
O=C(O)c1ccc(-n2cc(-c3ccccc3Br)nn2)cc1 [Compound 270, 4-[4-(2-Bromo-phenyl)-[1,2,3]triazol-1-yl]-benzoic acid] | 261 to 262 °C
CC(C)c1ccc(-c2ccc(-n3cnc(-c4cccc(C(=O)O)c4)n3)cc2)cc1 [Compound 28, 3-[1-(4′-Isopropyl-biphenyl-4-yl)-1H-[1,2,4]triazol-3-yl]-benzoic acid] | 225 to 228 °C
O=C(O)c1ccc(-n2cc(-c3cccc(F)c3)cn2)cc1 [Compound 212, 4-[4-(3-Fluoro-phenyl)-pyrazol-1-yl]-benzoic acid] | 261 to 265 °C
O=C(O)c1cccc(-c2ccn(-c3ccc4c(c3)OCO4)n2)c1 [Compound 87, 3-(1-Benzo[1,3]dioxol-5-yl-1H-pyrazol-3-yl)-benzoic acid] | 210 to 215 °C
O=C(O)c1cccc(-c2ncn(-c3ccccc3Br)n2)c1 [Compound 30, 3-[1-(2-Bromo-phenyl)-1H-[1,2,4]triazol-3-yl]-benzoic acid] | 245 to 247 °C
O=C(O)c1cccc(-c2ncn(-c3ccccc3F)n2)c1 [Compound 17, 3-[1-(2-Fluoro-phenyl)-1H-[1,2,4]triazol-3-yl]-benzoic acid] | 239 to 241 °C
O=C(O)c1ccc(-n2cc3c(n2)-c2cccc(OC(F)F)c2CC3)cc1 [Compound 186, 4-(6-Difluoromethoxy-4,5-dihydro-benzo[g]indazol-2-yl)-benzoic acid] | 282 to 283 °C
O=C(O)c1ccc(-n2cc(-c3ccc(Br)cc3F)nn2)cc1 [Compound 267, 4-[4-(4-Bromo-2-fluoro-phenyl)-[1,2,3]triazol-1-yl]-benzoic acid] | 327 to 328 °C
O=C(O)c1cccc(-c2cnn(-c3ccc(F)cc3)c2)c1 [Compound 181, 3-[1-(4-Fluoro-phenyl)-1H-pyrazol-4-yl]-benzoic acid] | 235 to 237 °C
CC(C)c1ccc(-c2ccn(-c3cccc(C(=O)O)c3)n2)cc1 [Compound 5, 3-[3-(4-Isopropyl-phenyl)-pyrazol-1-yl]-benzoic acid] | 215 to 216 °C
N#Cc1cccc(-c2ccn(-c3ccccc3)n2)c1 [Compound 57, 3-(1-Phenyl-1H-pyrazol-3-yl)-benzonitrile] | 78 to 80 °C
N#Cc1cccc(-c2ccn(-c3ccc(C(F)(F)F)cc3)n2)c1 [Compound 62, 3-[1-(4-Trifluoromethyl-phenyl)-1H-pyrazol-3-yl]-benzonitrile] | 70 to 74 °C
O=C(O)c1ccc(-c2cnn(-c3cccc(OC(F)F)c3)c2)cc1 [Compound 173] | 255 to 257 °C
COc1cccc(-n2cnc(-c3ccc(C(=O)O)cc3)n2)c1 | 203 to 205 °C
O=C(O)c1cccc(-c2cnn(-c3ccc4c(c3)OCCO4)c2)c1 [Compound 225, 3-[1-(2,3-Dihydro-benzo[1,4]dioxin-6-yl)-1H-pyrazol-4-yl]-benzoic acid] | 201 to 203 °C
O=C(O)c1ccc(-n2cc(-c3cccc4ccccc34)nn2)cc1 [Compound 271, 4-(4-Naphthalen-1-yl-[1,2,3]triazol-1-yl)-benzoic acid] | 265 to 266 °C
O=C(O)c1cccc(-n2ccc(-c3ccc(N4CCOCC4)cc3)n2)c1 [Compound 82, 3-[3-(4-Morpholin-4-yl-phenyl)-pyrazol-1-yl]-benzoic acid] | 230 to 235 °C
O=C(O)c1ccc(-c2cnn(-c3ccc(C(F)(F)F)cc3)c2)cc1 [Compound 236, 4-[1-(4-Trifluoromethyl-phenyl)-1H-pyrazol-4-yl]-benzoic acid] | 271 to 273 °C

More lines, now with the values ahead:

melting point | Structure (SMILES)
253 to 254 °C | O=C(O)c1cccc(-n2cc(-c3ccc(Cl)cc3)cn2)c1 [Compound 49, 3-[4-(4-Chloro-phenyl)-pyrazol-1-yl]-benzoic acid]
179 to 180 °C | COc1cccc(-c2ccn(-c3cccc(C(=O)O)c3)n2)c1 [Compound 220, 3-[3-(3-Methoxy-phenyl)-pyrazol-1-yl]-benzoic acid]
276 to 277 °C | COc1cccc(-c2cn(-c3ccc(C(=O)O)cc3)nn2)c1 [Compound 204, 4-[4-(3-Methoxyphenyl)-[1,2,3]triazol-1-yl]benzoic acid]
> 310 °C | Cc1ccccc1-n1nc(-c2cccc(C(=O)O)c2)[nH]c1=O [Compound 41, 3-(5-Oxo-1-o-tolyl-4,5-dihydro-1H-[1,2,4]triazol-3-yl)-benzoic acid]
164 to 166 °C | N#Cc1cccc(-c2ccn(-c3cccc(C(=O)O)c3)n2)c1 [Compound 78, 3-[3-(3-Cyano-phenyl)-pyrazol-1-yl]-benzoic acid]
268 to 270 °C | COc1ccc(-c2ccn(-c3ccc(C(=O)O)cc3)n2)cc1 [Compound 219, 4-[3-(4-Methoxy-phenyl)-pyrazol-1-yl]-benzoic acid]
235 to 236 °C | O=C(O)c1cccc(-c2ccn(-c3cccnc3)n2)c1 [Compound 260, 3-(1-Pyridin-3-yl-1H-pyrazol-3-yl)-benzoic acid]
243 to 245 °C | O=C(O)c1cccc(-n2cc(-c3ccccn3)cn2)c1 [Compound 113, 3-(4-Pyridin-2-yl-pyrazol-1-yl)-benzoic acid]
224 to 226 °C | O=C(O)c1cccc(-c2ccn(-c3ccc(C(F)(F)F)cc3)c2)c1 (as salt: sodium) [Compound 154, 3-[1-(4-Trifluoromethyl-phenyl)-]-1H-pyrrol-3-yl]-benzoic acid sodium salt]
284 to 286 °C | O=C(O)c1cccc(-c2ncn(-c3ccc([N+](=O)[O-])cc3)n2)c1 [Compound 23, 3-[1-(4-Nitro-phenyl)-1H-[1,2,4]triazol-3-yl]-benzoic acid]
118 to 120 °C | O=C(O)c1cccc(-n2cc(-c3ccc(OC(F)F)cc3)cn2)c1 [Compound 107, 3-[4-(4-Difluoromethoxy-phenyl)-pyrazol-1-yl]-benzoic acid]
218 to 220 °C | O=C(O)c1cccc(-c2cnn(-c3ccc(C(F)(F)F)cc3)c2)c1 [Compound 235, 3-[1-(4-Trifluoromethyl-phenyl)-1H-pyrazol-4-yl]-benzoic acid]
263 to 267 °C | CC(C)c1ccc(-n2nc(-c3ccc(C(=O)O)cc3)oc2=O)cc1 [Compound 276, 4-[4-(4-Isopropyl-phenyl)-5-oxo-4,5-dihydro-[1,3,4]oxadiazol-2-yl]-benzoic acid]
221 to 223 °C | O=C(O)c1cccc(-c2cnn(-c3ccc4c(c3)OCO4)c2)c1 [Compound 239, 3-(1-Benzo[1,3]dioxol-5-yl-1H-pyrazol-4-yl)-benzoic acid]
237 to 240 °C | O=C(O)c1cccc(-n2ccc(-c3ccc(F)cc3)n2)c1 [Compound 92, 3-[3-(4-Fluoro-phenyl)-pyrazol-1-yl]-benzoic acid]
239 to 241 °C | COc1ccc2c(c1)-c1cn(-c3cccc(C(=O)O)c3)nc1CC2 [Compound 253, 3-(8-Methoxy-4,5-dihydro-benzo[e]indazol-2-yl)-benzoic acid]
264 to 268 °C | Cc1ccc(-n2ccc(-c3ccc(C(=O)O)cc3)c2)cc1F [Compound 244, 4-[1-(3-Fluoro-4-methyl-phenyl)-1H-pyrrol-3-yl]-benzoic acid]
239 to 240 °C | CC(C)c1ccc(-c2nn(-c3ccc(C(=O)O)cc3)c(=S)o2)cc1 [Compound 285, 4-[5-(4-Isopropyl-phenyl)-2-thioxo-[1,3,4]oxadiazol-3-yl]-benzoic acid]
274 to 276 °C | O=C(O)c1cccc(-n2cc(-c3ccc([N+](=O)[O-])cc3)cn2)c1 [Compound 101, 3-[4-(4-Nitro-phenyl)-pyrazol-1-yl]-benzoic acid]
205 to 208 °C | Cc1ccc(-n2ccc(-c3cccc(C(=O)O)c3)c2)cc1F [Compound 241, 3-[1-(3-Fluoro-4-methyl-phenyl)-1H-pyrrol-3-yl]-benzoic acid]
